According to US20060052357A1, “Organometallic anti-tumour agent” (priority 2001, published 2006):

Tests used:
leukemia P-388 = experiment: Leukemia P-388 survival (original strain); assay type: in vivo, mice
AKATON tumor = AKATON tumor prevention by MOC.melphalan; assay type: in vivo, mice; details: for Average tumor mass: control 4.46; for Average tumor volume: control 7.90
Experimental: Mice of the Balb line received the substance MOC.melphalan in dosages of 2.5 mg/kg and 5 mg/kg in 0.3 ml of physiological solution by intravenous administration on four consecutive days (1× a day). On day 5, the AKATON tumor was implanted in the animals. The animals were sacrificed on day 21 of the investigation and underwent histological, morphological examination (table 16, FIG. 6).

[1] = 2.5 mg/kg i.v. four consecutive days before implantation
[2] = 5.0 mg/kg i.v. four consecutive days before implantation

CC(=O)C=C(C)[O-].CC(=O)C=C(C)[O-].NC(Cc1ccc(N(CCCl)CCCl)cc1)C(=O)O.[Cu+2] (centres unmarked) [MOC.melphalan, (C5H7O2)2—Cu—C13H18Cl2N2O2]
ILS % (leukemia P-388; 10 mg/kg, days 1, 5, 9): 419% | Number of surviving animals/number of animals in group (leukemia P-388; 10 mg/kg, days 1, 5, 9): 5/6 | ILS % (leukemia P-388; 10 mg/kg, days 1, 7): 465% | Number of surviving animals/number of animals in group (leukemia P-388; 10 mg/kg, days 1, 7): 4/6 | ILS % (leukemia P-388; 15 mg/kg, days 1, 7): 447% | Number of surviving animals/number of animals in group (leukemia P-388; 15 mg/kg, days 1, 7): 5/6 | Percent inhibition of tumor volume (AKATON tumor; [1]): 40% | Percent inhibition of tumor weight (AKATON tumor; [1]): 40% | Average tumor mass (AKATON tumor; [1]): 2.67 g | Average tumor volume (AKATON tumor; [1]): 4.76 cm^3 | Percent inhibition of tumor volume (AKATON tumor; [2]): 82% | Percent inhibition of tumor weight (AKATON tumor; [2]): 80% | Average tumor mass (AKATON tumor; [2]): 0.91 g | Average tumor volume (AKATON tumor; [2]): 1.38 cm^3
